Legend:
[1] = molecular target: T1, Human immunodeficiency virus type 1 integrase (Human immunodeficiency virus 1, UniProt Q7ZJM1); experiment: Inhibition of recombinant full length C-terminal His-tagged HIV1 integrase expressed in Escherichia coli BL21(DE3) cells assessed as inhibition of recombinant C-terminal FLAG-tagged LEDGF/p75-induced integration of viral 32-mer blunt-ended U5 DNA into pBR322 DNA preincubated with enzyme for 30 mins followed by viral and target DNA addition and subsequent addition of LEDGF/p75 after 5 mins measured after 90 mins by HTRF assay; format: cell-based
T1 sequence (Q7ZJM1 whole entry): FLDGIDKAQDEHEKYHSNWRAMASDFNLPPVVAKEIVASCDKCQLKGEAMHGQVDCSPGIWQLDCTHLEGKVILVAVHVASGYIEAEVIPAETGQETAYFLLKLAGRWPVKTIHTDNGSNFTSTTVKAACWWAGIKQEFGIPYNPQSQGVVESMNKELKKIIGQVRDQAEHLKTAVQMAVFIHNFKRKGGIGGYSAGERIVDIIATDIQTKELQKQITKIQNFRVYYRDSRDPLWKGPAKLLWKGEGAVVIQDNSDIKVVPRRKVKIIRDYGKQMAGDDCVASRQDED

[2] = molecular target: T2, Human immunodeficiency virus type 1 integrase (Human immunodeficiency virus 1, UniProt Q7ZJM1, A128T); experiment: (§1) Inhibition of recombinant full length C-terminal His-tagged HIV1 integrase A128T mutant expressed in Escherichia coli BL21(DE3) cells assessed as reduction in LEDGF/p75 independent 3' processing activity using 32P-labeled blunt ended 21-mer DNA as substrate preincubated for 30 mins followed by substrate addition measured after 1 hr by […]
T2 sequence (Q7ZJM1 entry or part of it A128T): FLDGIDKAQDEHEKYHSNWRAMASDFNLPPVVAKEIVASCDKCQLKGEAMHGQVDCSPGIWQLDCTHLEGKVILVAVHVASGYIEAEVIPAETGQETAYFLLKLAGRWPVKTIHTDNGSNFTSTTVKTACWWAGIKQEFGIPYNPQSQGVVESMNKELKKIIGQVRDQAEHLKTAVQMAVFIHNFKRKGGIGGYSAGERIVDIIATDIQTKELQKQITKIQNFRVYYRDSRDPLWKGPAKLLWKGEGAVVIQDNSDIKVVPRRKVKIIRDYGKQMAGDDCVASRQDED

[3] = molecular target: T2, Human immunodeficiency virus type 1 integrase; experiment: Inhibition of recombinant full length HIV1 C-terminal His-tagged integrase A128T mutant multimerization with N-terminal FLAG-tagged integrase A128T mutant expressed in Escherichia coli BL21(DE3) cells after 2.5 hrs by HTRF assay
[4] = molecular target: T1, Human immunodeficiency virus type 1 integrase; experiment: Inhibition of C-terminal FLAG-tagged LEDGF/p75 binding to recombinant full length N-terminal His-tagged HIV1 integrase expressed in Escherichia coli BL21(DE3) cells preincubated with enzyme for 30 mins followed by LEDGF/p75 addition by HTRF assay
[5] = molecular target: T1, Human immunodeficiency virus type 1 integrase; experiment: as §1, with “integrase” for “integrase A128T mutant”
[6] = molecular target: T1, Human immunodeficiency virus type 1 integrase; experiment: Inhibition of recombinant full length HIV1 C-terminal His-tagged integrase multimerization with N-terminal FLAG-tagged integrase expressed in Escherichia coli BL21(DE3) cells after 2.5 hrs by HTRF assay

## Cn1c(CC(OC(C)(C)C)C(=O)O)c(-c2ccccc2)c2ccccc21 (stereo not drawn)
[1]
  IC50: > 100 µM

## COc1ccc(-c2c(C(OC(C)(C)C)C(=O)O)n(C)c3ccccc23)cc1 (stereo not drawn)
[1]
  IC50: 32 µM

## Cn1c(C(OC(C)(C)C)C(=O)O)c(-c2ccccc2)c2ccccc21 (stereo not drawn)
[1]
  IC50: 44.1 µM

## COc1ccc(-n2c(C(OC(C)(C)C)C(=O)O)c(C)c3ccccc32)cc1 (stereo not drawn)
[1]
  IC50: > 100 µM

## Cn1c(C(OC(C)(C)C)C(=O)O)c(Cc2ccccc2)c2ccccc21 (stereo not drawn)
[1]
  IC50: 31.3 µM

## Cn1c(C(OC(C)(C)C)C(=O)O)c(-c2ccc3c(c2)CCCO3)c2ccccc21 (stereo not drawn)
[2]
  IC50: 0.9 µM
[3]
  EC50: 16 µM
[4]
  IC50: 28.7 µM
[5]
  IC50: 3.2 µM
[6]
  EC50: 16.1 µM
[1]
  IC50: 4.5 µM

## COc1ccc(-c2c(C(OC(C)(C)C)C(=O)O)n(Cc3ccccc3)c3ccccc23)cc1 (stereo not drawn)
[1]
  IC50: 59.1 µM

## COC(C(=O)O)c1c(C)nc2ccc(Br)cc2c1-c1ccc(Cl)cc1 (stereo not drawn)
[1]
  IC50: 1.3 µM

Reference: ChEMBL document CHEMBL4431384, “Indole-based allosteric inhibitors of HIV-1 integrase” (Bioorg Med Chem Lett, 2016)
